pIC50: −log10 of the molar value.
Columns and labels:
[1] = tested on: rat model of acute lung injury; experiment: Rat model of LPS-induced acute lung injury; format: in vivo, Wistar rats; set-up: IL-6 (serum) / IL-6 (homogenate of lung tissue) / IL-6 (bronchoalveolar lavage fluid) / TNF-α (serum) / TNF-α (homogenate of lung tissue) / TNF-α (bronchoalveolar lavage fluid): unit not given here; conditions: ELISA; test drug 30 mg/kg i.p. 2 h before and 1 h after LPS; 12 h after modeling
Method: 1. Experimental aminals: SPF-grade male Wistar rats, weighed 180-220 g, 6-8 weeks old.
3. Establishment of animal model: The rats were adaptively fed for one week. After the animals were anesthetized, 3 mg/kg LPS (B8) was injected intratracheally to prepare the rat model of acute lung injury.
4. […] At 2 hours before modeling (before tracheal injection of LPS), the test drug (30 mg/kg, the vehicle was 0.3% DMSO in saline) was intraperitoneally injected. At 1 hour after modeling, the test drug was administered once again (at the same dose). At 12 hours after modeling, the animals were sacrificed, and the samples were collected for the tests of various indexes. […]
5.2 ELISA method: 5 rats per group. The serum, alveolar lavage fluid, and tissue homogenate of one lung of each of the rats were subjected to ELISA assay to determine the TNF-α and IL-6 levels.

[2] = tested on: rat model of diabetic retinopathy; experiment: Rat model of diabetic retinopathy (STZ); format: in vivo, Wistar rats; conditions: Concanavalin A/FITC; 14 days after intravitreal injection; compounds 0.25%, dexamethasone 0.1%
Method: 3.1 Laboratory animals: SPF-grade male Wistar rats, weighed 180-220 g.
3.3 Animal modeling and grouping: After one week of adaptive feeding, 134 male Wistar rats (weighed 220-260 g) were administered 65 mg/kg of STZ by one-time intraperitoneal injection to prepare a rat model of type I diabetic. The rats were fasting but water was allowable overnight for 15 h. The formulated STZ solution was intraperitoneally injected according to body weight. After 1 h, the diet was resumed and blood glucose was measured at 72 h. The successfully modeled diabetic rats (120 rats) were selected for continued feeding, and randomly divided into the following 6 groups according to blood glucose (20 rats per group), plus a group of normal rats with no STZ injected as a negative control group.
3.4 Administration: The rats continued to be fed until blood glucose was measured once before administration. After blood glucose reached the standard, drugs were intravitreally injected, and indexs were subsequently tested after 14 days. Blood glucose was measured once before sampling.
3.5 Evans blue staining method (7 groups, 6 rats per group): Evans blue was intravenously injected. 2 hours later, normal saline was perfused into the left ventricle. The retina was taken to compare between the stained area and the unstained area to detect retinal vascular permeability.
3.6 Retinal leukocyte stasis detection method (7 groups, 6 rats per group): PBS was perfused into the left ventricle for 1 min to remove red blood cells and other substances. Concanavalin A (FITC (Sigma, C7642) was perfused (20 μg/ml in PBS, 5 mg/kg) to mark adherent leukocytes. 4% PFA was perfused for 4 min for fixation. 1% Albumin (Sigma, A6414) (in PBS) was perfused for 1 min, and then PBS was perfused for 2 min. The retina was taken for retinal wholemount. Thereafter, the stasis of leukocytes on the vascular endothelium was observed under a fluorescence microscope. […]

[3] = tested on: mouse model of ragweed pollen-induced allergic conjunctivitis; experiment: Mouse model of ragweed pollen-induced allergic conjunctivitis; format: in vivo, Balb/c mice
Method: SPF-grade Balb/c mice (half male and half female, 6-8 weeks old) were used as experimental animals. On Day 0 and Day 6, ragweed pollen footpad injection was injected subcutaneously into the footpads of mice for sensitization (65 μl per mouse). On Days 10-14, in the model group, eye drop of ragweed pollen was applied to both eyes of the mice (10 μl per mouse) once a day. The eye drops were applied for 5 consecutive days to trigger local allergic conjunctivitis (Wu B, et al., Frontiers in Immunology, 2021, 12:4754). […] On Day 14, within 30 minutes after the final challenge, the ocular clinical symptoms of the mice were observed under a microscope and scored according to the scoring criteria reported by Magone et al. (MerayoLloves J, et al., J Allergy Clin Immunol (1996) 97(5):1129-40; Magone M T, et al., Clin Immunol Immunopathol (1998) 87(1):75-84), the allergic response of the eyes were observed, including 4 indexes: conjunctival edema, conjunctival congestion, eyelid congestion and edema, and tearing. The scores were recorded as 0-3 points according to the severity (including none, mild, moderate and severe). The left eye of the mouse was taken with the eyelid (keeping the conjunctiva intact), fixed with polyformaldehyde, sectioned in paraffin, Hematoxylin-Eosin stained (HE stained), and toluidine blue stained (for detection of mast cells). Photographs were taken to analyze the inflammatory cell infiltration of the conjunctival tissue, and observe whether the mast cells in the conjunctiva aggregated and whether a phenomenon of degranulation occurred. The expression of allergic indicators IL-4 and IgE in the conjunctival tissue was detected by immunohistochemistry.
The mouse eye, including the eyelids (with intact conjunctiva), was sectioned after deparaffinization, and subjected to antigen retrieval and serum blocking.
Diluted IL-4 or IgE antibodies were added and incubated overnight. After incubation with secondary antibodies, DAB staining was performed, followed by counterstaining with hematoxylin. The slides were then mounted and observed under an […], with photographs taken. Semi-quantitative analysis was conducted using Image-J software. Based on the cumulative optical density and regional area values of each image, the average optical density was calculated to detect the positive expression of IL-4 or IgE.

human B1R = target: T1, human B1R (Homo sapiens, UniProt P46663); experiment: FLIPR calcium ion flux assay, inhibitory activity against human B1R; format: cell-based; conditions: HEK293 cells stably expressing human B1R; agonist [Lys-des-Arg9]-Bradykinin 4.6 nM (EC80); FLIPR method
T1 construct: host or cells: HEK293
T1 sequence (P46663 1-353): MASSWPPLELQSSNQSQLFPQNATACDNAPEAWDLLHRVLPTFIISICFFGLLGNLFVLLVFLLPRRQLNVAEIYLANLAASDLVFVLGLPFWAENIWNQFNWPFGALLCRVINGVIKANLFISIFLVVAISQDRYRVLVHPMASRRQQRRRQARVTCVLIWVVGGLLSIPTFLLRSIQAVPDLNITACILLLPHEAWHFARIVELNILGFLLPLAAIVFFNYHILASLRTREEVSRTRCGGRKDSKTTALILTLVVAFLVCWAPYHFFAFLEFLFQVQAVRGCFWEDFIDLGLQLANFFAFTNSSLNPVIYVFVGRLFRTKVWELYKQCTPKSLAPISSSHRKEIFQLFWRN
In short: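 HEK293 cells stably expressing human B1R, loaded with Fluo-4 Direct plus probenecid; compounds 9-point 1:5 series from 30 μM, duplicate, preincubated 10 min. Stimulation with [Lys-des-Arg9]-bradykinin at 4.6 nM final (EC80); peak fluorescence at 538 nm gave IC50.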

[4] = Drug concentration in rat retinas after intraocular injection (HPLC); format: in vivo, Wistar rats; conditions: male, Wistar, rat, retina, other: intraocular injection, 5 μL of 0.5% solution per eye; Day 7 after intraocular injection of 0.5% (5 μL per eye); read-out: retinal drug concentration
From the text: 1.1 Experimental aminals: SPF-grade male Wistar rats weighed 180-220 g.
1.2 Drugs and reagents: Compound 71; sodium chloride injection (Shandong Qidu Pharmaceutical Co., Ltd., Batch No.: 3B151014124); acetonitrile (chromatographically pure, TEDIA, USA); methanol (chromatographically pure, SIGMA-ALDRICH product); triethylamine (analytically pure, Hangzhou Gaojing Fine Chemical Co., Ltd.).
1.3 Experimental grouping and administration: according to the sampling time, 33 male Wistar rats were divided into 11 groups (three rats per group) of: (1) control group; (2) 0 h; (3) 2 h; (4) 6 h; (5) 24 h; (6) 48 h; (7) 72 h; (8) 5 d; (9) 7 d; (10) 10 d; (11) 14 d. Three rats in the control group were injected with solvent (sterile normal saline) intraocularly, and the remaining 30 rats were injected with Compound 71 intraocularly at a concentration of 0.5% by using a 5 μL microinjector, and 5 μL of drug was injected per bulbus oculi.
1.4 Sampling and detection index: The retina of the rat in the control group was taken on Day 14 (14 d), and the retina of the remaining 30 rats was taken at the corresponding time points. The retina were frozen in liquid nitrogen, and then subjected to the subsequent HPLC detection.
1.5.1 Chromatographic conditions: The mobile phase was chromatographic grade acetonitrile-water=25-75 (v/v). The flow rate was 0.5 mL/min. The column temperature was 25° C. The UV detection wavelength was 254 nm. The injection volume was 20 μL.
1.5.2 Sample processing and preparation: the sample of the rat retina was taken out from the ultra-low temperature (−80° C.) refrigerator, accurately weighed and placed in a glass homogenizer, and ethyl acetate as an organic solvent pre-cooled in a 4° C. refrigerator was added at a ratio of 100 mL/g. The homogenizer was placed in an ice bath for homogenization. After homogenization, all the homogenate was poured into a 5 mL stoppered centrifuge tube. The centrifugation was performed at a low temperature of 4° C. for 5 min (5000 r/min). All the organic phase as the upper layer was accurately taken out and placed in a glass tube with conical bottom. The remaining residue of retina was extracted with 2 mL ethyl acetate repeatedly once. After centrifugation, the two organic phases were combined. Then, the centrifuge tube with conical bottom was blowed for dryness in a nitrogen flow in a 45° C. water bath. The residue was redissolved with 0.1 mL of chromatographic methanol, vortex mixed for 1 min, and centrifuged for 5 min at a high speed of 18000 r/min. 20 μL of the supernatant was taken, and analyzed in a high-performance liquid chromatography system.
1.5.3 Sample determination: After intraocular injection of 5 μL of 0.5% Compound 71, the retina was taken at different time points to analyze the drug content of the test compound in the retina.
1.5.4 Experimental results and conclusions: According to the retinal drug concentration-time curve, it is in conformity to the non-absorption two-compartment model. According to the pharmacokinetic non-absorption two-compartment model theory, the pharmacokinetic parameters of the drug were calculated.

[5] = immunohistochemistry, dexamethasone 0.1% eye drop

pIC50 (human B1R)	concentration at 7 d [4]	Compound	IL-6 (bronchoalveolar lavage fluid) [1]	IL-6 (homogenate of lung tissue) [1]	IL-6 (serum) [1]	TNF-α (bronchoalveolar lavage fluid) [1]	TNF-α (homogenate of lung tissue) [1]	TNF-α (serum) [1]	retinal leukocyte stasis, Leukocyte count [2]	Clinical symptom score ([3]; 0.1% dexamethasone eye drop, twice a day for 14 days, Day 14 within 30 minutes after final challenge)	expression of IL-4 in ocular tissue (average optical density) [3, 5]	expression of IgE in ocular tissue (average optical density) [3, 5]
–	–	C[C@@H]1C[C@H]2[C@@H]3CCC4=CC(=O)C=C[C@]4(C)[C@@]3(F)[C@@H](O)C[C@]2(C)[C@@]1(O)C(=O)CO [Dexamethasone, dexamethasone, reference compound]	115.59 ± 67.57	150.17 ± 100.46	255.58 ± 109.87	13.62 ± 7.33	19.17 ± 7.55	57.26 ± 19.27	4.17 ± 3.21	4.75 ± 0.51	0.23±0.09	0.53±0.11
6.83	1540 nM	COc1ccc(-c2ccc(NC(=O)N3CCC(C(F)(F)F)CC3)cc2-c2nn[nH]n2)cc1OC [Compound 2, N-(3′,4′-dimethoxy-2-(2H-tetrazol-5-yl)-[1,1′-biphenyl]-4-yl)-4-(trifluoromethyl)piperidine-1-carboxamide]	–	–	–	–	–	–	–	–	–	–
